Earlier results in Sander's compilation of Henry's law constants (doi:10.1093/bja/45.3.282).

Assay: Henry solubility constant Hcp at 310 K (mol/(m3 Pa))
Conditions: reference: Steward et al. (1973); cited value
In the case of FC(F)(F)C(Cl)Br (centres undefined) [1-bromo-1-chloro-2,2,2-trifluoroethane], the “Henry solubility constant Hcp at 310 K” value is given as 0.00031.
For FC(F)OC(Cl)C(F)(F)F (centres undefined) [1-chloro-2,2,2-trifluoroethyl difluoromethyl ether], the “Henry solubility constant Hcp at 310 K” value is listed as 0.00024.
In the case of COC(F)(F)C(Cl)Cl [2,2-dichloro-1,1-difluoro-1-methoxyethane], the “Henry solubility constant Hcp at 310 K” value is listed as 0.0017.
In the case of FC(F)OC(F)(F)C(F)Cl (centres undefined) [2-chloro-1,1,2-trifluoroethyl difluoromethyl ether], the “Henry solubility constant Hcp at 310 K” value is given as 0.0003.
For C=COCC(F)(F)F [(2,2,2-trifluoroethoxy)-ethene], the “Henry solubility constant Hcp at 310 K” value is listed as 0.00033.
In the case of CCCl [chloroethane], the “Henry solubility constant Hcp at 310 K” value is given as 0.00047.
For C1CC1 [cyclopropane], the “Henry solubility constant Hcp at 310 K” value is given as 8.1e-05.
In the case of CCOCC [diethyl ether], the “Henry solubility constant Hcp at 310 K” value is given as 0.005.
For [N-]=[N+]=O [dinitrogen monoxide], the “Henry solubility constant Hcp at 310 K” value is given as 0.00018.
In the case of C=COC=C [divinyl ether], the “Henry solubility constant Hcp at 310 K” value is given as 0.00054.
For C=C [ethene], the “Henry solubility constant Hcp at 310 K” value is listed as 3.5e-05.
In the case of [Kr] [krypton], the “Henry solubility constant Hcp at 310 K” value is given as 2e-05.
For ClC=C(Cl)Cl [trichloroethene], the “Henry solubility constant Hcp at 310 K” value is listed as 0.00066.
For [Xe] [xenon], the “Henry solubility constant Hcp at 310 K” value is given as 3.3e-05.
